Data set [1] has as its target human MRGPRX1 receptor (Homo sapiens, UniProt Q96LB2). As to the kind of experiment: DiscoverX calcium mobilization cell culture assay, agonist mode (FLIPR Tetra). Format: cell-based. The following applies: Table 2 initial screening data, agonist format, peptides. As for the experimental part: DiscoverX® Calcium cell line overexpressing naturally Gq coupled, wildtype human MRGPRX1 receptor was used to detect calcium mobilization in response to agonist stimulation of the receptor. Cells were plated in a 384-well plate and incubated overnight at 37° C. and 5% CO2 to allow the cells to attach and grow. Culture media was removed and replaced with dye loading buffer from the Calcium No WashPLUS detection kit according to the recommended protocol. Cells were incubated with peptides to induce response and calcium mobilization was detected using a FLIPR® Tetra (Molecular Devices, Inc.).
Compound activity was analyzed using Chemical and Biological Information System (CBIS) data analysis suite (ChemInnovation, CA). For agonist mode assays, percentage activity is calculated using the following formula: % Activity=100%×(mean RFU of test sample−mean RFU of vehicle control)/(mean MAX RFU control ligand−mean RFU of vehicle control). […] RFU means relative fluorescence units.
Background: Calcium assays in cells follow changes in intracellular calcium, usually with a dye or a luminescent sensor.

The test system of data set [2] is mechanical allodynia. To be noted: mouse, chronic constriction injury, intrathecal; cited from earlier work.
Data set [3] deals with mechanical allodynia. To be noted: rat, spinal nerve ligation, intrathecal; cited from earlier work.

pEC50: −log10 of the molar value. Where two headings read alike, the source gives them in different places. Non-standard residues stand in square brackets, D forms with d. Residues, ends and D or L forms follow the SMILES beside them. No end group written: not given here. Nle = CCCC[C@H](N)C(=O)O

human MRGPRX1 receptor, sequence (Q96LB2 whole entry): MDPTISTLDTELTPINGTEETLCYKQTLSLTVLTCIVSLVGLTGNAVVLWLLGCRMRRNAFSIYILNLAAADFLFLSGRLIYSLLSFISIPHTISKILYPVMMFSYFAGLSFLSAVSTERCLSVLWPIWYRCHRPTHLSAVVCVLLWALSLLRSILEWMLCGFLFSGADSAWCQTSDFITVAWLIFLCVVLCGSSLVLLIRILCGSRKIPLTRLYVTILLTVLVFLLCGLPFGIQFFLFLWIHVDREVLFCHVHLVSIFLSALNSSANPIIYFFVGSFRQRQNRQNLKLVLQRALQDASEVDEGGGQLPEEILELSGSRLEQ

Usually pEC50 stands for the EC50 on a negative log10 scale, so that one unit is a factor of ten. As to `CCCC[C@H](NC(=O)[C@H](Cc1c[nH]c2ccccc12)NC(=O)[C@H](Cc1c[nH]c2ccccc12)NC(=O)[C@H](CCC(=O)O)NC(=O)[C@@H]1CCCN1C(=O)[C@H](CCCNC(=N)N)NC(=O)CNC(=O)[C@@H](N)C(C)C)C(=O)N[C@@H](CC(=O)O)C(=O)N[C@@H](Cc1ccc(O)cc1)C(=O)N[C@@H](CCC(N)=O)C(=O)N[C@@H](CCCCN)C(=O)N[C@@H](CCCNC(=N)N)C(=O)N[C@@H](Cc1ccc(O)cc1)C(=O)NCC(=O)O` [OK-205, VGRPEWW-Nle-DYQKRYG (SEQ ID NO: 22)] (H-VGRPEWW[Nle]DYQKRYG-OH; N-terminus and C-terminus assumed), the pEC50 in data set [1] was 7.95.

Take `CSCC[C@H](NC(=O)[C@H](Cc1c[nH]c2ccccc12)NC(=O)[C@H](Cc1c[nH]c2ccccc12)NC(=O)[C@H](CCC(=O)O)NC(=O)[C@@H]1CCCN1C(=O)[C@H](CCCNC(=N)N)NC(=O)CNC(=O)[C@H](N)C(C)C)C(=O)N[C@@H](CC(=O)O)C(=O)N[C@@H](Cc1ccc(O)cc1)C(=O)N[C@@H](CCC(N)=O)C(=O)N[C@@H](CCCCN)C(=O)N[C@@H](CCCNC(=N)N)C(=O)N[C@@H](Cc1ccc(O)cc1)C(=O)NCC(=O)O` [OK-206, dV-GRPEWWMDYQKRY-dG (SEQ ID NO: 23)] (H-[dV]GRPEWWMDYQKRYG-OH; N-terminus and C-terminus assumed): the pEC50 in data set [1] was 8.99.

On to “GRPEWWMDYQKRY [OK-203, GRPEWWMDYQKRY (SEQ ID NO: 3)]”, for which, in data set [1], the pEC50 is 9.17.

With “VGRPEWWMDSQKRYG [OK-202, VGRPEWWMDSQKRYG (SEQ ID NO: 54)]”, the pEC50 in data set [1] was 5.80.

As to “VGRPEWWMDYQKRYG [BAM-8-22, VGRPEWWMDYQKRYG (SEQ ID NO: 21)]”, in data set [2], the baseline nociception entry is “did not affect baseline nociception” and the mechanical allodynia result is “attenuates mechanical allodynia”. In data set [1], the pEC50 is 8.88. Also, in data set [3], the baseline nociception entry is “did not affect baseline nociception” and the mechanical allodynia result was “attenuates mechanical allodynia”.

The values are drawn from patent US20220281915A1, “COMPOSITIONS COMPRISING BOVINE ADRENAL MEDULLA 8-22 (BAM8-22) PEPTIDE ANALOGS AND METHODS OF USE” (OKYO Pharma Limited, priority 2019, published 2022).
